The values below come from ChEMBL document CHEMBL4665914, “Identification of BRaf-Sparing Amino-Thienopyrimidines with Potent IRE1α Inhibitory Activity” (ACS Med Chem Lett, 2020).

Molecules are shown by their SMILES.

The target in data set [1] is T1, Serine/threonine-protein kinase/endoribonuclease IRE1 (Homo sapiens, UniProt O75460). The data set can be described thus: Competitive inhibition of IRE1alpha LKR domain (Q470 to L997 residues) (unknown origin) expressed in Sf9 insect cells using mini-XBP-1 stem-loop RNA as substrate and measured every 2 mins for 50 mins by FRET assay.
T1 sequence (O75460 whole entry, the tested form may be a part): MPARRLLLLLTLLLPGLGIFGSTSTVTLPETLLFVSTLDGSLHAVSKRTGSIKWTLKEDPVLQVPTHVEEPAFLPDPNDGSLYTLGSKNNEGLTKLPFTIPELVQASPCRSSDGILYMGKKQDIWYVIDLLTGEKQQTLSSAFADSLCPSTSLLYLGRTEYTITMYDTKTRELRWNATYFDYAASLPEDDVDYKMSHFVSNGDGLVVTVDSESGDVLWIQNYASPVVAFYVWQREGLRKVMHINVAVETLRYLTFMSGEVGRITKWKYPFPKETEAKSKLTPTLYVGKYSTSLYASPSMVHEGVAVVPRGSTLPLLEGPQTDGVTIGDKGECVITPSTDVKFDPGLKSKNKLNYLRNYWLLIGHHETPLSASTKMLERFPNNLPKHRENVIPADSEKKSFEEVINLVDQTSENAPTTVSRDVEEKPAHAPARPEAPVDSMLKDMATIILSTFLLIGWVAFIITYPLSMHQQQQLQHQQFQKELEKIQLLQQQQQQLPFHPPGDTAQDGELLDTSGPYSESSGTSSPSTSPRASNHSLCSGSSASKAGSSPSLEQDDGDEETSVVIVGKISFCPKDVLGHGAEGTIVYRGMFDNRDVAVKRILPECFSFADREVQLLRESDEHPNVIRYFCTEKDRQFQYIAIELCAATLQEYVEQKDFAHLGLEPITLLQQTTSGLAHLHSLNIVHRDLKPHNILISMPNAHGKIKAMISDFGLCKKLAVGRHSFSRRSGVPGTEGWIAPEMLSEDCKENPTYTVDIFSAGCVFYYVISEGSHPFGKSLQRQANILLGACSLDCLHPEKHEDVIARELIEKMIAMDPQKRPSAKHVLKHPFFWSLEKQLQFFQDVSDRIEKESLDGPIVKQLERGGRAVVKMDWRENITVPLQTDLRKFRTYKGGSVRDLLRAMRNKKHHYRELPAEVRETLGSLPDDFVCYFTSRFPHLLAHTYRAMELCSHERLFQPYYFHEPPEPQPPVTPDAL
The target in data set [2] is T1, Serine/threonine-protein kinase/endoribonuclease IRE1. The data set can be described thus: Inhibition of IRE1alpha (unknown origin) assessed as XBP-1 slicing luciferase activity incubated for 1 hr followed by stimulation with thapsigargin measured after 5 hrs by luciferase reporter gene assay.
Data set [3] addresses T2, hERG (KCNH2) (Homo sapiens, UniProt Q12809). Put plainly: Inhibition of human ERG at 1 uM relative to control.
Data set [4] has as its target T2, hERG (KCNH2). The data set can be described thus: Inhibition of human ERG at 10 uM relative to control.
Data set [5] deals with Serine/threonine-protein kinase B-raf (Homo sapiens, UniProt P15056, V600E).
Sequence of Serine/threonine-protein kinase B-raf (P15056 2-766 V600E limits assumed): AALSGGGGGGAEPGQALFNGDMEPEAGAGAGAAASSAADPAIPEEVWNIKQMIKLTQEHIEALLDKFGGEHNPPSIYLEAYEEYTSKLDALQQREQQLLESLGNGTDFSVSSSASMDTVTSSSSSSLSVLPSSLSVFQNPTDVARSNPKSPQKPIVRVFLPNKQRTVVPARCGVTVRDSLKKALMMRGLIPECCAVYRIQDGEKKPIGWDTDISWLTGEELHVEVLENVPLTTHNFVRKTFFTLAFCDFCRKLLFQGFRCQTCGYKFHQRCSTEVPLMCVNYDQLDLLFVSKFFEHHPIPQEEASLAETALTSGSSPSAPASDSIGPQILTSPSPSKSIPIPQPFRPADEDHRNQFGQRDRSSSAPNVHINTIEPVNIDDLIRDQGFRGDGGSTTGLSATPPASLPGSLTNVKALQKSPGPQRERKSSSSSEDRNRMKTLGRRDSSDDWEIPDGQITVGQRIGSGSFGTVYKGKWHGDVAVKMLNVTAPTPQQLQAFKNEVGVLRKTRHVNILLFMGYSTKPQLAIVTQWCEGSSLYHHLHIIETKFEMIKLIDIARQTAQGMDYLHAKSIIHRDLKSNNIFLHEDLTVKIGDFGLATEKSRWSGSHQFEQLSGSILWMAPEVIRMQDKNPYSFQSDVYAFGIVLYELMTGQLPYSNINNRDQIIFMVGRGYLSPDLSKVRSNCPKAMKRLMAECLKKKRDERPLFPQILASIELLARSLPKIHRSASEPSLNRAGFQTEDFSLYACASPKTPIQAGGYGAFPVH

T2 sequence (Q12809 whole entry): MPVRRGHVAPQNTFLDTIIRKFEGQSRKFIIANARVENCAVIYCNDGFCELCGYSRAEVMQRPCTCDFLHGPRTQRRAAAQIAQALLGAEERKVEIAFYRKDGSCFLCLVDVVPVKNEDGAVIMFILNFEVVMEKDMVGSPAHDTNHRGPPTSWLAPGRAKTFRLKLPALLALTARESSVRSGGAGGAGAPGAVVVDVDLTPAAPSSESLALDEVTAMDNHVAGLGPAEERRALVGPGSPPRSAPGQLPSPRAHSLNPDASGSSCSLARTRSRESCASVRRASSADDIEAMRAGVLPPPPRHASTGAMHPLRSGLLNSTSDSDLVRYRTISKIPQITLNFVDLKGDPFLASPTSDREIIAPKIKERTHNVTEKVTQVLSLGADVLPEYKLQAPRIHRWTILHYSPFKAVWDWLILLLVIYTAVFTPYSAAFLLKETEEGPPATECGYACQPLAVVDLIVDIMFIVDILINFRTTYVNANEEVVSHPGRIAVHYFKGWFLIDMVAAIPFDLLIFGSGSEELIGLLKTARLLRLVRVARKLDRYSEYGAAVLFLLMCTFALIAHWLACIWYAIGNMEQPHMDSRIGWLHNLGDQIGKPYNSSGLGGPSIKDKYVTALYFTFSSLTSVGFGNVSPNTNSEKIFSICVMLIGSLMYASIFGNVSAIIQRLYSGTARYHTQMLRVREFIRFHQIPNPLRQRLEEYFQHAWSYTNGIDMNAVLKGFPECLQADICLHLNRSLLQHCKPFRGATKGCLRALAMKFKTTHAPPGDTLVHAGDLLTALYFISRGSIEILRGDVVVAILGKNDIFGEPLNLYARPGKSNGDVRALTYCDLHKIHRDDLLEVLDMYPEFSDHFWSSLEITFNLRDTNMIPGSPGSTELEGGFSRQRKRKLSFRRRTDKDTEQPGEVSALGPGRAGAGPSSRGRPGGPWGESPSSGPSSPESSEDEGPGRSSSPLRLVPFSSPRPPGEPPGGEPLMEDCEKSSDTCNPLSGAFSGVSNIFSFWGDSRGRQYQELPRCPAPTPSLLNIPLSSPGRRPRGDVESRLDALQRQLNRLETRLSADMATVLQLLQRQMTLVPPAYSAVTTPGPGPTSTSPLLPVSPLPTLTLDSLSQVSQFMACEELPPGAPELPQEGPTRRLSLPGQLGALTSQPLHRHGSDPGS

Consider `N[C@H]1CC[C@H](Nc2ncnc3c(C(=O)Nc4c(Cl)ccc(NS(=O)(=O)c5ccccc5Cl)c4F)csc23)CC1`, for which the values for the IC50 in data set [1] and in data set [2] were 22 nM and 0.12 µM, respectively. For the same compound, at hERG (KCNH2) [3], the inhibition at 1 µM was 1.1%. The compound further yielded an inhibition at 10 µM against hERG (KCNH2) [4] of 6.4%.

Regarding `N[C@H]1CC[C@H](Nc2ncnc3c(C(=O)Nc4c(Cl)ccc(NS(=O)(=O)c5cc(F)ccc5F)c4F)csc23)CC1`, the IC50 in data set [1] turned out to be 24 nM; in data set [2], 0.32 µM. For the same compound, the Ki in data set [5] was determined as 1.4 nM.

As for `Cc1cc(C(=O)Nc2c(Cl)ccc(NS(=O)(=O)c3cc(F)ccc3F)c2F)c2ncnc(N)c2c1`, the IC50 was found to be 31 nM in data set [1] and 1.1 µM in data set [2]. The compound further registered a Ki in data set [5] of no more than 0.08 nM.

As to `Cc1nn(C)cc1-c1cc(C(=O)Nc2c(Cl)ccc(NS(=O)(=O)c3ccccc3Cl)c2F)c2ncnc(N)c2c1`, the half-maximal inhibitory concentration (IC50) in data set [1] amounted to 64 nM; in data set [2], 0.048 µM. The affinity in data set [5] corresponds to a Ki of 0.25 nM.

For `N[C@H]1CC[C@H](Nc2ncnc3c(C(=O)Nc4c(Cl)ccc(NS(=O)(=O)Cc5ccccc5)c4F)csc23)CC1`, the half-inhibitory concentration (IC50) in data set [1] is 30 nM; in data set [2], 0.39 µM. In addition, the Ki in data set [5] is 55 nM.

As for `Nc1ncnc2c(C(=O)Nc3c(Cl)ccc(NS(=O)(=O)c4cc(F)ccc4F)c3F)csc12`, the IC50 in data set [1] turned out to be 67 nM; in data set [2], 5.3 µM. In data set [5], this compound showed a Ki of no more than 0.08 nM.

Regarding `Nc1ncnc2c(C(=O)Nc3c(Cl)ccc(NS(=O)(=O)c4cc(F)ccc4F)c3F)cc(-c3cccnc3)cc12`, the IC50 was 47 nM in data set [1] and 4.9 µM in data set [2]. Moreover, in data set [5], the inhibitory constant (Ki) was no more than 0.08 nM.

On to `Cc1cc(NS(=O)(=O)c2ccccc2Cl)c2ccccc2c1Oc1ncccc1-c1ccnc(N[C@H]2CC[C@H](N)CC2)n1`, for which the IC50 in data set [1] amounted to 4.2 nM; in data set [2] it was 0.057 µM.

On to `Nc1ncnc2c(C(=O)Nc3c(Cl)ccc(NS(=O)(=O)N4CCCC4)c3F)cccc12`, for which the IC50 was found to be 200 nM in data set [1] and 5.58 µM in data set [2]. Besides, the affinity in data set [5], expressed as Ki, was 2.3 nM.

Take `Cc1cc(C(=O)Nc2c(Cl)ccc(NS(=O)(=O)c3cc(F)ccc3F)c2F)c2ncnc(N[C@H]3CC[C@H](N)CC3)c2c1`: the concentration for half-maximal inhibition (IC50) in data set [1] was 700 nM; in data set [2] it was 19 µM. Besides, the inhibition constant Ki in data set [5] was 340 nM.

In the case of `Cc1cc(C(=O)Nc2c(Cl)ccc(NS(=O)(=O)c3cc(F)ccc3F)c2F)c2ncnc(NCCN)c2c1`, the IC50 in data set [1] worked out at 920 nM; in data set [2], 31 µM. Also, the Ki in data set [5] is 5.2 nM.

For `Cc1cc(C(=O)Nc2c(Cl)ccc(NS(=O)(=O)c3cc(F)ccc3F)c2F)c2ncnc(N[C@H]3CCCNC3)c2c1`, the results for the IC50 in data set [1] and in data set [2] were 670 nM and 9.9 µM, respectively.

As to `Cc1nn(C)cc1-c1cc(C(=O)Nc2c(Cl)ccc(NS(=O)(=O)c3ccccc3F)c2F)c2ncnc(N)c2c1`, the IC50 is 40 nM in data set [1] and 0.044 µM in data set [2]. In addition, the Ki in data set [5] was no more than 0.08 nM.

For `Cc1cc(C(=O)Nc2c(Cl)ccc(NS(=O)(=O)c3cc(F)ccc3F)c2F)c2ncnc(N[C@@H]3CCCNC3)c2c1`, the 50% inhibitory concentration (IC50) in data set [1] amounted to 3500 nM; in data set [2], 19 µM. In data set [5], this compound yielded a Ki of 70 nM.
